Data as given in publication PMC5697763 (Bioconjugate chemistry, 2016).
Values joined by “and” are separate entries in the source; they are usually repeats but may differ in a detail not shown here. Identical values can stand only once. Like-named read-outs stand apart in the source and are kept apart here.

Molecular target: LMCA1 (Listeria monocytogenes serovar 1/2a, UniProt Q8Y8Q5)
Assay: biochemical
Type: biochemical

Chain of LMCA1 (Q8Y8Q5 whole entry): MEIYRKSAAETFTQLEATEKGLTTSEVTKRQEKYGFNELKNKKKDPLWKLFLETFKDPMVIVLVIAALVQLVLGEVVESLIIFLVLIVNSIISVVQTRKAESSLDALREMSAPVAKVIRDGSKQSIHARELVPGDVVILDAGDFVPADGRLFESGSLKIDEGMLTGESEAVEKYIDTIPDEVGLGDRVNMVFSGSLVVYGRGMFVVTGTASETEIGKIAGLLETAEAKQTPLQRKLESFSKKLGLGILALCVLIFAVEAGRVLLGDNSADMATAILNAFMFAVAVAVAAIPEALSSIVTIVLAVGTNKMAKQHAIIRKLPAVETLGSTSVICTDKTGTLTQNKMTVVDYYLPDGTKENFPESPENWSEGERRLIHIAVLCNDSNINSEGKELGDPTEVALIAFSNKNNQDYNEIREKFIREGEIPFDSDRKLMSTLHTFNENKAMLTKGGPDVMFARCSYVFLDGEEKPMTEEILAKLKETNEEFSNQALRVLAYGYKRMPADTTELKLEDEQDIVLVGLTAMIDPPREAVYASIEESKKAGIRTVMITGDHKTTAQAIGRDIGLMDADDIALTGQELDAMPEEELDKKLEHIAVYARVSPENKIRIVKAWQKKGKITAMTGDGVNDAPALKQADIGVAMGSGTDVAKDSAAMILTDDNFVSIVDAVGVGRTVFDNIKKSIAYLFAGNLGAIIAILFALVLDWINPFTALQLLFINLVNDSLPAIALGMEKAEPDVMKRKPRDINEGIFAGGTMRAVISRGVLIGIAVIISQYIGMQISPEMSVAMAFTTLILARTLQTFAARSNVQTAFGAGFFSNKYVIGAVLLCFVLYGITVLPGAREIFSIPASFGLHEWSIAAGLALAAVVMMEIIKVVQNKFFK

| Structure (SMILES) | Hill coefficient | IC50 [µM] | Hill coefficient (absence of NaF (H2O)) | Hill coefficient (constant NaF concentration of 0.5 mM) |
| --- | --- | --- | --- | --- |
| F [NaF] | −2.4 and −2.4 ± 0.4 | 2300 ± 200 | – | – |
| [Be+2] [BeSO4] | – | 27 ± 5 | −0.72 ± 0.08 | −1.1 ± 0.1 |
